The values that follow come from patent publication US7713937B2, “Synthetic peptide amides and dimeric forms thereof” (Cara Therapeutics, Inc., priority 2006, dated 2010).

Square brackets hold non-standard residues; d marks the D form. Peptide text beside a SMILES is read from it. * marks the point of attachment. Piperidinyl(4-(1-Pro-OH)) = O=C(O)[C@@H]1CCCN1C1CCN(*)CC1; Piperidin1yl(4-NH2,4-COOH) = NC1(C(=O)O)CCN(*)CC1; Homopiperazine(4-amidino) = N=C(N)N1CCCN(*)CC1; d(hArg) = N=C(N)NCCCC[C@@H](N)C(=O)O; dAgb = N=C(N)NCC[C@@H](N)C(=O)O; Homopiperazinyl = C1CNCCN(*)C1

The target of data set [1] is T1, mouse kappa opioid receptor (mKOR) (Mus musculus, UniProt P33534).
T1 construct: Stimulation of Endogenous Mouse Kappa-Opioid Receptor in R1.G1 Cells; host or cells: R1.G1 mouse thymoma cells
Description: cell-based. As to conditions: for Emax: read-out: mKOR Efficacy(%).

Data set [2] addresses T2, human kappa opioid receptor (hKOR) (Homo sapiens, UniProt P41145).
T2 construct: expressed in transfected cells; host or cells: HEK-293 cells, transient transfection with Fugene6
Kind of data set: cell-based. To be noted: for Emax: HEK293, read-out: hKOR Efficacy(%).

For a further data set, the system named is ICR mice. Description: Acetic acid-induced writhing assay in mice. It counts as in vivo, mouse. As to conditions: iv; for ED50 (mg/kg, iv, 15 min post-dose): mice.
A short description of data set [3]: Caco-2 (TC7 subclone) membrane permeability, apical-to-basolateral. As to conditions: human. (Caco-2 monolayers are a common model of the intestinal barrier.)
The next data set addresses T3, human mu opioid receptor (Homo sapiens, UniProt P35372).
T3 construct: expressed in transfected cells
Description: Similar assay for potency on the human mu opioid receptor. The class given is cell-based. On the procedure:
Synthetic peptide amides of the invention were tested in a similar assay for potency on the human mu opioid receptor.
The synthetic peptide amide (53) was tested in a similar assay for potency on the human mu opioid receptor.

T1 sequence (P33534 whole entry): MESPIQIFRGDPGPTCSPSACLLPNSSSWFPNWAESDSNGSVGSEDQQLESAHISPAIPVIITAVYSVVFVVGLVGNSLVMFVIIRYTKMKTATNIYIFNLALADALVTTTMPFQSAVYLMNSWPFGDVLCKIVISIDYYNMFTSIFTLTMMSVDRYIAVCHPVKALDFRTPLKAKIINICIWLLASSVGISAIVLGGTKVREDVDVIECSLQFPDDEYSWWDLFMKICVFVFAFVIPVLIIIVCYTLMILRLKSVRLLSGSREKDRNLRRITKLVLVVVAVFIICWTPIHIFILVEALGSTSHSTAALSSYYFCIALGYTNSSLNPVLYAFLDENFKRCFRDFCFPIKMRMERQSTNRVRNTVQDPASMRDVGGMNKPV
T2 sequence (P41145 whole entry): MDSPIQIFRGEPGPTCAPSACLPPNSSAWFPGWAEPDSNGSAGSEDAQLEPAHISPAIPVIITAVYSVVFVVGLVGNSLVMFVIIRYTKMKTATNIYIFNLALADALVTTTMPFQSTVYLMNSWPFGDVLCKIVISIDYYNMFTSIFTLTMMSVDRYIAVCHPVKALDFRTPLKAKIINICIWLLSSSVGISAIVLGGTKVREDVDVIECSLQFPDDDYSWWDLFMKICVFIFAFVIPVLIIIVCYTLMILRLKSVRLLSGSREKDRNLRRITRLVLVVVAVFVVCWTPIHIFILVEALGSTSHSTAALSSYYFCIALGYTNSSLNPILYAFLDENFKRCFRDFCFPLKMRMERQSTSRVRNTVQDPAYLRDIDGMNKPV
T3 sequence (P35372 whole entry): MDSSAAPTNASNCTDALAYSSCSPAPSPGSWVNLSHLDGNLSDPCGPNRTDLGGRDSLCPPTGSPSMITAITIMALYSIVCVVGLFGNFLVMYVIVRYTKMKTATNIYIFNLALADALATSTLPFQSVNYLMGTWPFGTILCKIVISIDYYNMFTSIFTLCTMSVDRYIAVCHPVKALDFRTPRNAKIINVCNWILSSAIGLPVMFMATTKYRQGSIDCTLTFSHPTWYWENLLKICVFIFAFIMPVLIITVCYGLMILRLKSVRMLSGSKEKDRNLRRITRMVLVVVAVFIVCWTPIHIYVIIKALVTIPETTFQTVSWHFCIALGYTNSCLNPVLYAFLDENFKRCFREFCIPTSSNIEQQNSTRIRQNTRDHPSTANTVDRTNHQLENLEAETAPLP

As to `CC(C)C[C@@H](NC(=O)[C@@H](Cc1ccccc1)NC(=O)[C@H](N)Cc1ccccc1)C(=O)N[C@H](CCCCN)C(=O)N1CCC(N)(C(=O)O)CC1` [Compound (2), D-Phe-D-Phe-D-Leu-D-Lys-[ω(4-aminopiperidine-4-carboxylic acid)]-OH], in data set [1], the EC50 stood at 0.048 nM and the Emax was found to be 96%. In data set [2], the EC50 is 0.16 nM and the Emax was 99%. For the same compound, the “ED50 (mg/kg, iv, 15 min post-dose)” value with ICR mice is given as 0.07 mg/kg. Moreover, in the data set on ICR mice (240 min post-ED90), the “% MPE (240 min post-ED90)” value was 81 ± 4%. In the data set on ICR mice (300 min post-ED90), the “% MPE (300 min post-ED90)” value stood at 84 ± 4%.

`CNC(=C[N+](=O)[O-])NCCSCc1ccc(CN(C)C)o1` [Ranitidine, ranitidine] registered a Papp A→B at 60 min, 10 μM in data set [3] of 0.5 ×10⁻⁶ cm/s.

Take `CC(C)C[C@@H](NC(=O)[C@@H](Cc1ccccc1)NC(=O)[C@H](N)Cc1ccccc1)C(=O)N[C@H](CCCN)C(=O)N1CCCN(C(=N)N)CC1` [Compound (53), D-Phe-D-Phe-D-Leu-D-Orn-[4-amidinohomopiperazine amide]]: the EC50 in data set [1] was 0.03 nM; in data set [2] it was 0.15 nM; on human mu opioid receptor, at least 1000 nM. In data set [2], the Emax turned out to be 103%.

Turning to `CNCCC[C@@H](NC(=O)[C@@H](CC(C)C)NC(=O)[C@@H](Cc1ccccc1)NC(=O)[C@H](N)Cc1ccccc1)C(=O)N1CCCNCC1` [Compound (60), D-Phe-D-Phe-D-Leu-(δ-Me)D-Orn-[homopiperazine amide]], in data set [1], the EC50 is 0.045 nM and the Emax came to 95%. In data set [2], the EC50 was determined as 0.09 nM and the Emax came to 106%.

Take `CC(C)C[C@@H](NC(=O)[C@@H](Cc1ccccc1)NC(=O)[C@H](N)Cc1ccccc1)C(=O)N[C@H](CCCN)C(=O)N1CCCNCC1` [Compound (56), D-Phe-D-Phe-D-Leu-D-Orn-[homopiperazine amide]]: in data set [1], the response was half-maximal at 0.08 nM (EC50) and the Emax amounted to 100%. In data set [2], the EC50 came to 0.22 nM.

For `CC(C)C[C@@H](NC(=O)[C@@H](Cc1ccccc1)NC(=O)[C@H](N)Cc1ccccc1)C(=O)N[C@H](CCCCN)C(=O)N1CCN(c2cnccn2)CC1` [Compound (64), D-Phe-D-Phe-D-Leu-D-Lys-[2-(piperazin-1-yl)pyrazine amide]], in data set [1], the Emax came to 85%. In data set [2], the EC50 worked out at 0.0293 nM and the Emax worked out at 100%.

Consider `CC(C)C[C@@H](NC(=O)[C@@H](Cc1ccccc1)NC(=O)[C@H](N)Cc1ccccc1)C(=O)N[C@H](CCCN)C(=O)N1CCC(CCCC(=O)O)CC1` [Compound (48), D-Phe-D-Phe-D-Leu-D-Orn-[4-(4-piperidinyl)-butanoic acid]-OH], for which, in data set [1], the response was half-maximal at 0.092 nM (EC50) and the Emax is 100%. Further, in data set [2], a half-maximal effect (EC50) was put at 0.26 nM and the Emax is 97%.

For the compound `CC(C)C[C@@H](NC(=O)[C@@H](Cc1ccccc1)NC(=O)[C@H](N)Cc1ccccc1)C(=O)N[C@H](CCCN)C(=O)N1CCC(CC(=O)O)CC1` [Compound (39), D-Phe-D-Phe-D-Leu-D-Orn-[4-carboxymethyl-piperidine]-OH], in data set [1], the response was half-maximal at 0.08 nM (EC50) and the Emax turned out to be 97%. Further, in data set [2], the response was half-maximal at 0.12 nM (EC50) and the Emax turned out to be 99%.

As to `CC(C)C[C@@H](NC(=O)[C@@H](Cc1ccccc1)NC(=O)[C@H](N)Cc1ccccc1)C(=O)N[C@H](CCNC(=N)N)C(=O)N1CCC(N2CCC[C@H]2C(=O)O)CC1` [Compound (13), D-Phe-D-Phe-D-Leu-D-Nar-[N-(4-piperidinyl)-L-proline]-OH] (H-[dF][dF][dL][dAgb]-{Piperidinyl(4-(1-Pro-OH))}), in data set [1], a half-maximal effect (EC50) was put at 0.032 nM and the Emax turned out to be 88%. For the same compound, in data set [2], the EC50 amounted to 0.13 nM and the Emax stood at 90%.

For the compound `CC(C)C[C@@H](NC(=O)[C@@H](Cc1ccccc1)NC(=O)[C@H](N)Cc1ccccc1)C(=O)N[C@H](CCNC(=N)N)C(=O)N1CCCN(C(=N)N)CC1` [Compound (23), D-Phe-D-Phe-D-Leu-D-Nar-[4-amidinohomopiperazine amide]] (H-[dF][dF][dL][dAgb]-{Homopiperazine(4-amidino)}), the EC50 came out at 0.091 nM in data set [1] and 0.17 nM in data set [2]. Also, the results for the Emax in data set [1] and in data set [2] were 104% and 84%, respectively.

`CC(C)C[C@@H](NC(=O)[C@@H](Cc1ccccc1)NC(=O)[C@H](N)Cc1ccccc1)C(=O)N[C@H](CCCN)C(=O)N1CCOC(C(=O)O)C1` (stereo partly drawn) [Compound (90), D-Phe-D-Phe-D-Leu-D-Orn-[R/S-2-carboxymorpholine]-OH]: in data set [1], the EC50 worked out at 0.178 nM and the Emax was 100%. In addition, in data set [2], the concentration giving a half-maximal response (EC50) is 0.16 nM and the Emax is 100%.

Consider `CC(C)C[C@@H](NC(=O)[C@@H](Cc1ccccc1)NC(=O)[C@H](N)Cc1ccccc1)C(=O)N[C@H](CCCCNC(=N)N)C(=O)N1CCC(N2CCC[C@H]2C(=O)O)CC1` [Compound (5), D-Phe-D-Phe-D-Leu-D-Har-[N-(4-piperidinyl)-L-proline]-OH] (H-[dF][dF][dL][d(hArg)]-{Piperidinyl(4-(1-Pro-OH))}), for which, in data set [1], a half-maximal response (EC50) required 0.034 nM and the Emax was determined as 89%. In addition, in data set [2], a half-maximal response (EC50) required 0.17 nM and the Emax was determined as 98%. In addition, the “ED50 (mg/kg, iv, 15 min post-dose)” value with ICR mice stood at 0.01 mg/kg. Also, the “% MPE (180 min post-ED90)” value with ICR mice (180 min post-ED90) turned out to be 54 ± 10%.

For the compound `CC(C)C[C@@H](NC(=O)[C@@H](Cc1ccccc1)NC(=O)[C@H](N)Cc1ccccc1)C(=O)N[C@H](CCCCN)C(=O)N1CCC2(CCNC2=O)CC1` [Compound (25), D-Phe-D-Phe-D-Leu-D-Lys-[2,8-diazaspiro[4,5]decan-1-one amide]], the figures for the EC50 in data set [1] and in data set [2] were 0.0314 nM and 0.0027 nM, respectively. The Emax in data set [1] was found to be 82%; in data set [2], 101%.

With `CC(C)C[C@@H](NC(=O)[C@@H](Cc1ccccc1)NC(=O)[C@H](N)Cc1ccccc1)C(=O)N[C@H](CCCCN)C(=O)N1CCN(c2nccs2)CC1` [Compound (66), D-Phe-D-Phe-D-Leu-D-Lys-[2-(piperazin-1-yl)thiazole amide]], the EC50 came out at 0.084 nM in data set [1] and 0.031 nM in data set [2]. Moreover, the Emax was found to be 85% in data set [1] and 92% in data set [2].

Take `CC(C)C[C@@H](NC(=O)[C@@H](Cc1ccccc1)NC(=O)[C@H](N)Cc1ccccc1)C(=O)N[C@H](CCCN)C(=O)NCCCC[C@H](NC(=O)[C@H](N)CCCN)C(=O)O` [Compound (79)]: the figures for the EC50 in data set [1] and in data set [2] were 0.08 nM and 0.13 nM, respectively. Further, the Emax in data set [1] was determined as 101%.

As for `CC(C)C[C@@H](NC(=O)[C@@H](Cc1ccccc1)NC(=O)[C@H](N)Cc1ccccc1)C(=O)N[C@H](CCCCNC(=N)N)C(=O)N1CCC(N)(C(=O)O)CC1` [Compound (8), D-Phe-D-Phe-D-Leu-D-Har-[ω(4-aminopiperidine-4-carboxylic acid)]-OH] (H-[dF][dF][dL][d(hArg)]-{Piperidin1yl(4-NH2,4-COOH)}), in data set [1], the midpoint of the response, the EC50, lay at 0.043 nM and the Emax worked out at 90%. In addition, in data set [2], the EC50 turned out to be 0.12 nM and the Emax is 96%.

For the compound `CC(C)C[C@@H](NC(=O)[C@@H](Cc1ccccc1)NC(=O)[C@H](N)Cc1ccccc1)C(=O)N[C@H](CCCCN)C(=O)N1CCN(C(=O)c2ccccc2)CC1` [Compound (70), D-Phe-D-Phe-D-Leu-D-Lys-[phenyl(piperazin-1-yl)methanone amide]], the EC50 amounted to 0.348 nM in data set [1] and 0.012 nM in data set [2]. Further, the Emax in data set [1] was 92%; in data set [2], 94%.

In the case of `CC(C)C[C@@H](NC(=O)[C@@H](Cc1ccccc1)NC(=O)[C@H](N)Cc1ccccc1)C(=O)N[C@H](CCCNC(=N)N)C(=O)N1CCCNCC1` [Compound (7), D-Phe-D-Phe-D-Leu-D-Arg-[homopiperazine amide]] (H-[dF][dF][dL][dR]-Homopiperazinyl), in data set [1], the EC50 amounted to 0.012 nM and the Emax came to 98%. Besides, in data set [2], the EC50 amounted to 0.11 nM and the Emax was 100%.

Regarding `CNCCC[C@@H](NC(=O)[C@@H](CC(C)C)NC(=O)[C@@H](Cc1ccccc1)NC(=O)[C@H](N)Cc1ccccc1)C(=O)N1CCCN(C(=N)N)CC1` [Compound (57), D-Phe-D-Phe-D-Leu-(δ-Me)D-Orn-[4-amidinohomopiperazine amide]], in data set [1], the concentration giving a half-maximal response (EC50) came out at 0.078 nM and the Emax was determined as 97%. For the same compound, in data set [2], the EC50 was found to be 0.09 nM and the Emax was found to be 101%.

The term EC50 denotes the midpoint of the concentration-response curve. Broadly, the Papp A→B is the apparent permeability from the apical to the basolateral side of a cell layer. The low end stands for slow passage, the high end for fast passage.
